The results in this text go back to PubChem BioAssay AID367 (MTDP, 2006).

The structures appear in SMILES notation. pIC50: −log10 of the molar value. Active and inactive are the calls of the source. How the calls were made is not given here.

The experiment deals with Gag-Pol polyprotein (Human immunodeficiency virus type 2 subtype A (isolate ROD)) (UniProt P04584). Put plainly: Ribonuclease H inhibitors of HIV-2 reverse transcriptase, biochemical dose response (AID 367). As to conditions: HIV-2 RNase H, FRET RNA/DNA substrate cleavage.
Sequence of Gag-Pol polyprotein (Human immunodeficiency virus type 2 subtype A (isolate ROD)) (P04584 whole entry, looked up): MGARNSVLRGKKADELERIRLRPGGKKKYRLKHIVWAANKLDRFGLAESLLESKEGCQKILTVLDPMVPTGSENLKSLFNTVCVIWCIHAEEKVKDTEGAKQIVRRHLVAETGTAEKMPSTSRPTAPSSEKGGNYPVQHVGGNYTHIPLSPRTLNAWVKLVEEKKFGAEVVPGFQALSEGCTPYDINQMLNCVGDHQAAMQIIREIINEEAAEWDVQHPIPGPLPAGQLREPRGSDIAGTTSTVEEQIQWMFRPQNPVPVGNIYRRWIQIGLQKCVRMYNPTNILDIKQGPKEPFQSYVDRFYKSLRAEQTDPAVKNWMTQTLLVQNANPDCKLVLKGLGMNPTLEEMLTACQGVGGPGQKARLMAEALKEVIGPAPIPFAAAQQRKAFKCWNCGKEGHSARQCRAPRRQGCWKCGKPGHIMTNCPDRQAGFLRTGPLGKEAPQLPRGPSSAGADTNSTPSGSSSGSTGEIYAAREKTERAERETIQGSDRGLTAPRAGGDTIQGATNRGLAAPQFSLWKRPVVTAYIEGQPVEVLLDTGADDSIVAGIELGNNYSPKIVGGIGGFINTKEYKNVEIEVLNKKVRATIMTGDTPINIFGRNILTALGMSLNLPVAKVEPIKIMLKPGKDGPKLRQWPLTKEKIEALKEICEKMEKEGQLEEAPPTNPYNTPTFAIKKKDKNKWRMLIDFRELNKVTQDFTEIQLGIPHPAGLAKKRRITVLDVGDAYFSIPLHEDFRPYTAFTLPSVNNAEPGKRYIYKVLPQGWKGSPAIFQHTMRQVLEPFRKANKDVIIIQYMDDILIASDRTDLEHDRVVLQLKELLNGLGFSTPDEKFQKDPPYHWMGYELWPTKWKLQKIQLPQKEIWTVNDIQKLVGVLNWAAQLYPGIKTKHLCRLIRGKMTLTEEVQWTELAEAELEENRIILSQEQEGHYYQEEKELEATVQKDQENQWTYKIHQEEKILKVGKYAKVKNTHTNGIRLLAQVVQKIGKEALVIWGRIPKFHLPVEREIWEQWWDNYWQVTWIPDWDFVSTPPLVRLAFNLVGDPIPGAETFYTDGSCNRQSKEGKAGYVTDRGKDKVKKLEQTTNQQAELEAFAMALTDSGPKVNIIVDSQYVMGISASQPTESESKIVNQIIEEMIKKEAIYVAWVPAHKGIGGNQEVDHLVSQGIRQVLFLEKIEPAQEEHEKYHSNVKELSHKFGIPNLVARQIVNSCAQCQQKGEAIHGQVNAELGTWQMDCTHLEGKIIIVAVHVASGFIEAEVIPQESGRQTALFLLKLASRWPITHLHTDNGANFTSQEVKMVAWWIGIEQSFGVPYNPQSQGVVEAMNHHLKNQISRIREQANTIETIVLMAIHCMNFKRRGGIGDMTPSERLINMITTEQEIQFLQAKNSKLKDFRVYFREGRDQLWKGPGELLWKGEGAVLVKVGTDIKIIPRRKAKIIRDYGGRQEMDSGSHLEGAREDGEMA

With `Cc1ccc(NC(=O)c2c(NC(=O)c3ccccc3F)sc3c2CCCCC3)cc1`, the pIC50 was 5.30.
Same read-out and setting: next, `COc1ccc2oc(=O)c(-c3csc(Nc4ccc(Br)cc4)n3)cc2c1`: 5.01.
Regarding `COc1ccc(N2C(=O)/C(=C/c3ccc(I)o3)C(=O)NC2=S)cc1`, the pIC50 was 5.89.
The same measure, in the same setting: next, `O=c1[nH]c2[nH]c(=S)[nH]c(=S)c2[nH]1`: 5.40.
Consider `Cc1cccc(NCC(=O)N/N=C\c2c(Br)cc(Br)c(O)c2Br)c1`, for which the IC50 result is “inactive”.
In the case of `O=C1/C(=C/c2ccco2)C(=O)N(c2ccc(Br)cc2)C(=S)N1c1ccccc1`, the IC50 result was “inactive”.
Turning to `Cc1c(Cl)ccc2c1NC(C(=O)O)C1CC=CC21` (stereo not drawn), the IC50 entry is “inactive”.
As for `Cc1sc2nc(-c3ccc([N+](=O)[O-])cc3)[nH]c(=O)c2c1C`, the pIC50 is 6.19.
Turning to `COc1ccc(/C=C\C(=O)c2c(-c3ccccc3)c3cc(C)ccc3[nH]c2=O)c(OC)c1`, the IC50 entry is “inactive”.
As to `O=C(CSc1nc2ccccc2s1)c1sc2sc3ccccc3[n+]2c1[O-]`, the pIC50 is 5.72.
Regarding `C[C@]12Cc3cnc(-c4ccccc4)nc3C[C@@H]1CC[C@@H]1[C@@H]2CC[C@@]2(C)[C@H]1CC[C@]2(C)O`, the IC50 entry was “inactive”.
For `C[C@]12CC[C@H]3[C@@H](CCC4=CC(=O)CC[C@@]43C)[C@@H]1CC[C@@H]2C(=O)COS(=O)(=O)c1ccc(Br)cc1`, the pIC50 was 5.15.
For the molecule `COc1cc(C=O)ccc1OCCCOc1cccc(Oc2ccccc2)c1`, the IC50 was > 100 µM (inactive).
In the case of `C=Cc1c(C)c2cc3[nH]c(cc4nc(cc5nc(cc1[nH]2)C(C)=C5CCC(=O)O)C(CCC(=O)O)=C4C)c(C)c3C=C`, the pIC50 was 5.77.
Same read-out and setting: the value for `O=C(O)c1cc(-c2ccc(/C=C3/Sc4ccccc4C3=O)o2)ccc1O` was 5.48.
Turning to `CC1=C(C)CC(C(=O)Nc2ccc(N3C(=O)c4ccccc4C3=O)cc2)C(C(=O)O)C1` (stereo not drawn), the IC50 was > 100 µM (inactive).
With `CCOc1ccc(N2C(=O)/C(=C/c3ccc(I)o3)C(=O)NC2=S)cc1`, the pIC50 was 5.70.
In the case of `O=C1C=CC(=NS(=O)(=O)c2ccc(Cl)c([N+](=O)[O-])c2)C=C1`, the pIC50 was 5.39.
As for `O=C(N/N=C/c1ccc(/C=N/NC(=O)c2ccc(O)c(O)c2)cc1)c1ccc(O)c(O)c1`, the pIC50 is 5.42.
Regarding `COc1ccc(C2COc3cc(O)c(O)cc3C2)cc1` (stereo not drawn), the pIC50 was 6.30.
Regarding `NC(=O)c1c(N)sc2c1CCCCC2`, the pIC50 was 5.60.
Still for that read-out and setting: next, `O=C1NN(c2ccc(I)cc2)C(=O)/C1=C\c1ccc(O)c(O)c1`: 5.39.
`CCOc1ccc(NC(=O)c2c(NC(=O)c3ccccc3)sc3c2CCCCC3)cc1`: the IC50 result was “inactive”.
Still for that read-out and setting: next, `CC(=O)/C=C/C=C/c1ccc2c(c1)OC(CO)C(c1ccc(O)c(O)c1)O2` (stereo not drawn): “inactive”.
In the case of `Cc1sc(NC(=O)C2CCCO2)c(C(N)=O)c1C` (stereo not drawn), the pIC50 is 5.37.
For `COc1cc([C@@H]2c3cc4c(cc3C[C@H]3COC(=O)[C@@H]32)OCO4)cc(OC)c1O`, the IC50 entry was “inactive”.
Consider `O=c1oc2ccccc2c(O)c1/C=C1\C=Nc2ccccc21`, for which the pIC50 is 5.30.
`Cc1cc(C(=O)O)ccc1-n1c(C)ccc1C`: the IC50 result was “inactive”.
